Data published in US20220242812A1, “SWELL1-LRRC8 COMPLEX MODULATORS” (Washington University, priority 2019, published 2022).
Read-outs that look alike come from different tables or passages of the source.

Columns and labels:
Caco-2 cell monolayer = test: Caco-2 permeability assay; type: in vitro ADME
Protocol: (§1) In vitro ADMET studies were performed at Charles River Laboratory as outlined below. For the Caco-2 permeability assay, the cells were cultured (DMEM, 10% FBS, 1% L-Glutamax and 1% PenStrep) for 21 days. HBSS was used as the transport buffer and the TEER measurements were taken before the start of the assay. Compounds were added apical side to determine apical to basolateral transport (A-B) and basal side to determine basolateral to apical transport (B-A). Samples (10 μL) were collected at time 0 and 2 h and diluted (5×) with transport buffer. After the quenching reaction, the samples were further diluted in MilliQ water for bioanalysis. The TEER measurements were carried out at the end of the assay and wells with significant decrease in post-assay TEER values were not included in the data and repeated again. The analyte levels (peak area ratios) were measured on apical (A) and basolateral (B) sides at To and T2h-A-B and B-A fluxes were calculated averaging 3 individual measurements. Apparent permeability (Papp, cm/sec) was calculated as dQ (flux)/(dt*area*concentration). The efflux ratio was calculated by Papp(B-A)/[…]. For the microsomal metabolic stability assay, the microsomes were diluted in potassium phosphate buffer to maintain at a final concentration of 0.5 mg/ml in the assay procedure. The compounds were diluted 10-fold in acetonitrile and incubated with the microsomes at 37° C. with gentle shaking. Samples were collected at different timepoints and quenched. The samples were mixed by vortexing for 10 min and centrifuged at 3100 rpm for 10 min at 4° C. The supernatant was diluted in water and further analyzed in LC/MS autosampler. Half-life (T1/2) was calculated by the formula 0.692/slope where slope is ln(% remaining relative to Tzero vs time). Intrinsic clearance was calculated using the (CLn1)=T112*1/initial concentration*mg prep/g liver*g liver/kg body weight. For the cytochrome P450 inhibition assay, the cofactors and substrate were mixed in Potassium phosphate buffer. A stock concentration of 10 mM compounds (in DMSO) were diluted 5-fold in acetonitrile and mixed with cofactor/substrate mixture (2×). Human liver microsomes were diluted in Potassium phosphate buffer for a final concentration (2×) of 0.2 mg/ml and the reaction was initiated by mixing the microsomes with the compound/cofactor/substrate mixture at 37° C. with gentle shaking. Samples were collected at To and T30 min timepoints and quenched. The samples were then centrifuged at 3100 rpm for 5 min at 5-10° C. and the supernatant was diluted in water and further analyzed in LC/MS autosampler. % inhibition was calculated (using peak area ratios) relative to zero inhibition (full activity) and no activity (full inhibition).

[1] = Caco-2 permeability assay; type: in vitro ADME; settings: human, Caco-2; for Papp at 2 h: apparent permeability, read-out: Caco-2 10^−6 cm/s
Protocol: as §1

[2] = Microsomal metabolic stability assay; type: in vitro ADME; settings: human liver microsomes; read-out: Human hepatic microsome stability Clintrinsic
Protocol: In vitro ADMET studies were performed at Charles River Laboratory as outlined below. For the Caco-2 permeability assay, the cells were cultured (DMEM, 10% FBS, 1% L-Glutamax and 1% PenStrep) for 21 days. HBSS was used as the transport buffer and the TEER measurements were taken before the start of the assay. Compounds were added apical side to determine apical to basolateral transport (A-B) and basal side to determine basolateral to apical transport (B-A). Samples (10 μL) were collected at time 0 and 2 h and diluted (5×) with transport buffer. After the quenching reaction, the samples were further diluted in MilliQ water for bioanalysis. […] The analyte levels (peak area ratios) were measured on apical (A) and basolateral (B) sides at To and T2h-A-B and B-A fluxes were calculated averaging 3 individual measurements. Apparent permeability (Papp, cm/sec) was calculated as dQ (flux)/(dt*area*concentration). The efflux ratio was calculated by Papp(B-A)/Papp(B-A). […] The supernatant was diluted in water and further analyzed in LC/MS autosampler. Half-life (T1/2) was calculated by the formula 0.692/slope where slope is ln(% remaining relative to Tzero vs time). Intrinsic clearance was calculated using the (CLn1)=T112*1/initial concentration*mg prep/g liver*g liver/kg body weight. […]

[3] = system: endogenous SWELL1 plasma membrane localization; type: cell-based; settings: 3T3-F442A preadipocytes, 1 or 10 μM 48 h, compared to vehicle or SN071
Protocol: 3T3-F442A preadipocytes (WT, KO) and differentiated adipocytes without or with SWELL1 overexpression (WT+SWELL1 O/E, KO+SWELL1 O/E) were prepared as described in the Cell culture section on collagen coated coverslips. […] Either anti-SWELL1 (1:400) or anti-Flag (1:1500, Sigma #F3165) antibody were added to the cells and incubated overnight at 4° C. The cells were then washed three times (1×PBS) prior and post to the addition of 1:1000 Alexa Flour 488/568 secondary antibody (anti-rabbit, #A11034 or anti-mouse, #A11004) for 1 hour at RT. Cells were counterstained with nuclear TO-PRO-3 (Life Technologies, #T3605) or DAPI (Invitrogen, #D1306) staining (1 μM) for 20 min followed by three washes with 1×PBS. Coverslips were further mounted on slides with Prolong Diamond anti-fading media. All images were captured using Zeiss LSM700/LSM510 confocal microscope with 63× objective (NA 1.4). SWELL1 membrane localization was quantified by stacking all the z-images and converting it into a binary image where the cytoplasmic intensity per unit area was subtracted from the total cell intensity per unit area using ImageJ software.

CYP 2C9 = target: T1, CYP 2C9 (Homo sapiens, UniProt P11712); test: Cytochrome P450 inhibition assay, CYP 2C9; type: in vitro ADME; settings: human liver microsomes
T1 construct: Human liver microsomes were diluted in Potassium phosphate buffer; tissue Charles River Laboratory (performed the study); host or cells: human liver microsomes

CYP 3A4 = target: T2, CYP 3A4 (Homo sapiens, UniProt P08684); test: Cytochrome P450 inhibition assay, CYP 3A4; type: in vitro ADME; settings: human liver microsomes
T2 construct: Human liver microsomes were diluted in Potassium phosphate buffer; tissue Charles River Laboratory (performed the study); host or cells: human liver microsomes

[4] = target: T3, closed SWELL1-LRRC8 channel in HEK-293 cells (Homo sapiens, UniProt Q8IWT6); test: ICl,SWELL inhibition on application to the closed SWELL1-LRRC8 channel (30 min preincubation), HEK-293 cells; type: cell-based; settings: 30 minutes prior to hypotonic activation
T3 construct: endogenous in cells; host or cells: HEK-293 (ATCC CRL-1573)
Protocol: Patch-clamp recordings of β-cells and mature adipocytes were performed as described previously (Kang et al., 2018; Zhang et al., 2017). 3T3-F442A WT and KO preadipocytes were prepared as described in the Cell culture section above. For SWELL1 overexpression recordings, preadipocytes were first transduced with Ad5-CAG-LoxP-stop-LoxP-3×Flag-SWELL1 (MOI 12) in 2% FBS culture medium for two days and then overexpression induced by adding Ad5-CMV-Cre-wt-lRES-eGFP (MOI 10-12) in 2% FBS culture medium for two more days and changed to 10% FBS containing culture media and were selected based on GFP expression (˜2-3 days). For cell recordings, islets were transduced with Ad-RIP2-GFP and then dispersed after 48-72 hours for patch-clamp experiments. GFP+ cells marked β-cells selected for patch-clamp recordings. […] Recordings were measured using […] amplifier paired to a Digidata 1550 digitizer using pClamp 10.4 software. The extracellular buffer composition for hypotonic stimulation contains 90 mM NaCl, 2 mM CsCl, 1 mM MgCl, 1 mM CaCb, 10 mM HEPES, 10 mM Mannitol, pH 7.4 with NaOH (210 mOsm/kg). The extracellular isotonic buffer composition is same as above except for Mannitol concentration of 110 mM (300 mOsm/kg). The composition of intracellular buffer is 120 mM L-aspartic acid, 20 mM CsCl, 1 mM MgCl, 5 mM EGTA, 10 mM HEPES, 5 mM MgATP, 120 mM CsOH, 0.1 mM GTP, pH 7.2 with CsOH. All recordings were carried out at room temperature (RT) with HEK-293 cells, β-cells and 3T3-F442A cells performed in whole-cell configuration and human adipocytes in perforated-patch configuration, as previously described (Kang et al., 2018; Zhang et al., 2017).

Caco-2 efflux ranking (Caco-2 cell monolayer) | efflux ratio at 2 h ([1]; read-out: Caco-2 efflux ratio B-A/A-B) | SMILES | Caco-2 permeability ranking (Caco-2 cell monolayer) | Caco-2 efflux ranking (Caco-2 cell monolayer; Caco-2) | Caco-2 cell monolayer permeability (Caco-2 cell monolayer; in words) | Papp at 2 h [1] [×10⁻⁶ cm/s] | CLint scaled [2] [mL/min/kg] | Plasma membrane (PM) localization of endogenous SWELL1 [3] | IC50 (CYP 2C9) [µM] | IC50 (CYP 3A4) [µM] | Subsequent hypotonic SWELL1-LRRC8 activation ([4]; 250 nM) | Subsequent hypotonic SWELL1-LRRC8 activation ([4]; 1 μM)
 |  | CCCCC1(C2CCCC2)Cc2cc(OCCCC(=O)O)c(Cl)c(Cl)c2C1=O (centres unmarked) [SN-401, 4-((2-butyl-6,7-dichloro-2-cyclopentyl-1-oxo-2,3-dihydro-1H-inden-5-yl)oxy)butanoic acid] | Higher | Not | good | 8.24 | 72.7 | enhanced | < 10 | > 10 | markedly suppresses and delays | markedly suppresses and delays
Not | 1.58 | CCCCC1(C2CCCC2)Cc2cc(OCCCCCC(=O)O)c(Cl)c(Cl)c2C1=O (centres unmarked) [SN-406, 6-((2-butyl-6,7-dichloro-2-cyclopentyl-1-oxo-2,3-dihydro-1H-inden-5-yl)oxy)hexanoic acid] | Higher |  |  | 1.93 | 46.4 | enhanced | > 10 | > 10 | markedly suppresses and delays | markedly suppresses and delays
